Assays:
aldehyde oxidase = assay: Aldehyde oxidase mediated oxidation of methotrexate
Text: (§1) In order to unravel the mechanism of methotrexate non-responsiveness M. G. Nair investigated the metabolism of methotrexate and its potential deactivation pathways. […] 3; 29-34 (1996)].
The aldehyde oxidase mediated oxidation of methotrexate vs. certain metabolically inert antifolates was investigated by M. Gopal Nair. [Med. Chem. Research. 9:176-185, 1999].

[1] = cited from earlier work
[2] = women; sublingual versus oral solid dosage unit; cited from earlier work
[3] = cited from earlier work; remark: listed apart in the source
[4] = oral dosage form; cited from earlier work
[5] = Absorption of oral methotrexate in a group of arthritic patients (Example-1); assay type: in vivo, human; details: oral dosage form
Experimental: If 10 mg of the drug is given by the oral route only 2.0 mg is absorbed. If the optimal therapeutic dosage is tailored based on this low absorption, then the therapeutically effective dose without manifestation of significant toxic effects would be an effective accumulation of 2.0 mg of the drug in the plasma. It is reasonable to assume for antifolates that an increase of 50% of drug level in plasma relative to the accepted safe level would lead to disastrous toxic consequences including severe bone marrow depression. Therefore an increase of bioavailability from 20 to 30 percent in this case would effectively increase drug concentration by 50% in the plasma. The 10 percent increase in Bioavailability may well be envisioned by slight pH changes in the gut of patients who may be taking antacids, or medicine to modulate acid secretions, taking other medications or unknown factors. The present invention addresses this very crucial safety issues and provides a means to stabilize drug concentration in plasma to predictable levels by replacing oral dosage form of methotrexate with the sublingual dosage form, the absorption of which is independent of the biochemical pharmacology of human gut.

[6] = test system: patients with rheumatoid arthritis; assay: Conventional therapy of rheumatoid arthritis with methotrexate (Rheumatrex); assay type: in vivo, human
Text: as §1

CN(Cc1nc2c(N)nc(N)nc2[nH]c1=O)c1ccc(C(=O)N[C@@H](CCC(=O)O)C(=O)O)cc1 [7-hydroxymethotrexate]
antifolate activity of the oxidation product (aldehyde oxidase): inactive

Nc1nc(=O)c2c([nH]1)NCC(CNc1ccc(C(=O)N[C@@H](CCC(=O)[O-])C(=O)[O-])cc1)N2C=O.[Ca+2] (stereo partly shown) [Calcium folinate]
time to improvement of odynophagia ([1]; 15 mg orally four times a day after methotrexate overdose): ≤ 24 h

C[C@]12CC[C@@H]3c4ccc(O)cc4CC[C@H]3[C@@H]1CC[C@@H]2O [estradiol]
share of the oral dose needed by the sublingual route to achieve the same bioavailability [2]: 20-25%

CN(Cc1cnc2nc(N)nc(N)c2n1)c1ccc(C(=O)N[C@@H](CCC(=O)O)C(=O)O)cc1 [methotrexate]
solubility [3]: pH dependent | theoretical bioavailability [4]: 20-80% | toxic effects of the incorrect dose ([1]; 60 mg weekly instead of 15 mg weekly, oral tablets, rheumatoid arthritis patient): odynophagia, dysphagia and oesophagitis | severe unwanted effects ([1]; weekly dose taken in error daily or on several days each week): neutropenia, hepatotoxicity and bone marrow suppression | absorption [5]: 20% | percentage of patients who were methotrexate non-responders [6]: 40% | drug related toxicity ([6]; some patients): elevation of liver enzymes

Source: US20100239646A1, “Sublingual methotrexate and methotrexate patches” (priority 2009, published 2010)
